What was measured:
[1] = molecular target: T1, Histone deacetylase 4 (Homo sapiens, UniProt P56524); test: Inhibition of HDAC4 (unknown origin)
[2] = molecular target: T2, Histone deacetylase 5 (Homo sapiens, UniProt Q9UQL6); test: Inhibition of HDAC5 (unknown origin)
[3] = molecular target: T3, Histone deacetylase 7 (Homo sapiens, UniProt Q8WUI4); test: Inhibition of HDAC7 (unknown origin)
T3 sequence (Q8WUI4 whole entry): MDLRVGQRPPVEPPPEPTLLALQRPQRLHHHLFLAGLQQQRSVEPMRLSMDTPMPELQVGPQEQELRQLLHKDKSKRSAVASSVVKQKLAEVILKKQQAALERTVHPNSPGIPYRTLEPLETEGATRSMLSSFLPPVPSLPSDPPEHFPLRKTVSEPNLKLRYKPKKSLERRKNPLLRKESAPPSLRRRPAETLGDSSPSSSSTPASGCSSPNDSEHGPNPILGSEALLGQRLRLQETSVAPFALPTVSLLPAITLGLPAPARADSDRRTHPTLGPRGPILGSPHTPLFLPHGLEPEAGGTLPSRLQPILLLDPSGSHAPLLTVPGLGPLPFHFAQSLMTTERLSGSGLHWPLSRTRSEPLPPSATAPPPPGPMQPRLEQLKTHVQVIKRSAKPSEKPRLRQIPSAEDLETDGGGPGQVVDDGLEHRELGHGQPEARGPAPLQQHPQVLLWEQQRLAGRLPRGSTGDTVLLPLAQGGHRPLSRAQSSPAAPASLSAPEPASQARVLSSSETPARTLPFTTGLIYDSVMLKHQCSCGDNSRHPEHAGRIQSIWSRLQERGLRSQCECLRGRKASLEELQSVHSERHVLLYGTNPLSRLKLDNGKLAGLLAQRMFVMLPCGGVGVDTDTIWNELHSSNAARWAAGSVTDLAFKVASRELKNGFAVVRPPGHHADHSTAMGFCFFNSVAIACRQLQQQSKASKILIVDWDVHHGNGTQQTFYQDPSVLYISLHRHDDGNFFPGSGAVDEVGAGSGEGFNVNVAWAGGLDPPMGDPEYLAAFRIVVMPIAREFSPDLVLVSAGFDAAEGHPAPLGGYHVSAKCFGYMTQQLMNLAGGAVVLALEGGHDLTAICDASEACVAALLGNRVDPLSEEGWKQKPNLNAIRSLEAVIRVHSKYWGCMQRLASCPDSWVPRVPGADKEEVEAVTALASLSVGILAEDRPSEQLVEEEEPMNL

[4] = molecular target: T4, Histone deacetylase 9 (Homo sapiens, UniProt Q9UKV0); test: Inhibition of HDAC9 (unknown origin)
T4 sequence (Q9UKV0 whole entry): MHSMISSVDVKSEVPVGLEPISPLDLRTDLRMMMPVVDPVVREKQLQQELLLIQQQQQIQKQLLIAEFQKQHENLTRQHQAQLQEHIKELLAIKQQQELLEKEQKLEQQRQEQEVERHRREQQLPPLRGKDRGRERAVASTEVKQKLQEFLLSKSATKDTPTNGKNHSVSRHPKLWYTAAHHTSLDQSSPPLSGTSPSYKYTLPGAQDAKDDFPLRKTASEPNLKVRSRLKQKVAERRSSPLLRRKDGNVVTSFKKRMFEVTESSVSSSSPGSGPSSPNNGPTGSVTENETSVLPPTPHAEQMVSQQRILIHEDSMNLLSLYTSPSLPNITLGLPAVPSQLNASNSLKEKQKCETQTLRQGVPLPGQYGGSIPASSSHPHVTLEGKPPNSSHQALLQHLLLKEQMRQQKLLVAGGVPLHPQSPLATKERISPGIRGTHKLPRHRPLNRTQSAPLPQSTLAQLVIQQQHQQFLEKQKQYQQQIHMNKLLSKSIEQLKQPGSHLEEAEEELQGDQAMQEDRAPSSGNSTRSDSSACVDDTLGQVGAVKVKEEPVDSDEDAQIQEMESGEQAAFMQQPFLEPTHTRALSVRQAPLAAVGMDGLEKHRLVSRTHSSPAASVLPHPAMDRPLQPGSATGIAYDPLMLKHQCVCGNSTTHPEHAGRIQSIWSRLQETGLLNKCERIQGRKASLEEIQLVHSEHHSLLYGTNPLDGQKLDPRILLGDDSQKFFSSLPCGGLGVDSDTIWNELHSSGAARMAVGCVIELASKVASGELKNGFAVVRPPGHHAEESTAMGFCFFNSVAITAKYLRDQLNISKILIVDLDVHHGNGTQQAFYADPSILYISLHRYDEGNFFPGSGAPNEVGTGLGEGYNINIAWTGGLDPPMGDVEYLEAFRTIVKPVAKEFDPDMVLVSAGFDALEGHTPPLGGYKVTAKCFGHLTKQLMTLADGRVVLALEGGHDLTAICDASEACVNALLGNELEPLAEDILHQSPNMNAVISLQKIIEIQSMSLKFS

[5] = molecular target: Histone deacetylase 1 (Homo sapiens, UniProt Q13547); test: Inhibition of HDAC1 (unknown origin)
Histone deacetylase 1, sequence (Q13547 whole entry): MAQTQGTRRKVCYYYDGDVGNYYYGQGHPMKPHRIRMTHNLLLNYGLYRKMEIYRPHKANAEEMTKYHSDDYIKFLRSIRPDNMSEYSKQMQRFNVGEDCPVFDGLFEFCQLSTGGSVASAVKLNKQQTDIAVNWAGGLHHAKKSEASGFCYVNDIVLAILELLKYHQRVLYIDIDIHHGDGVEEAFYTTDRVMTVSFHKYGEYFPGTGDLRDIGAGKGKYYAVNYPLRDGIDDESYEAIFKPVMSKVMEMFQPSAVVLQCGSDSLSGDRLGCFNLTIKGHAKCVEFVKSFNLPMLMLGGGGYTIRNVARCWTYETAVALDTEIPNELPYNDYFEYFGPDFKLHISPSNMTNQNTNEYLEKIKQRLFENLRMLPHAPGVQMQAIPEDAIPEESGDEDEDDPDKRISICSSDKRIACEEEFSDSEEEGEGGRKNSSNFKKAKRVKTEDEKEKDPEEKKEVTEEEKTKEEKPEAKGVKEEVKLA

[6] = molecular target: Histone deacetylase 2 (Homo sapiens, UniProt Q92769); test: Inhibition of HDAC2 (unknown origin)
Histone deacetylase 2, sequence (Q92769 whole entry): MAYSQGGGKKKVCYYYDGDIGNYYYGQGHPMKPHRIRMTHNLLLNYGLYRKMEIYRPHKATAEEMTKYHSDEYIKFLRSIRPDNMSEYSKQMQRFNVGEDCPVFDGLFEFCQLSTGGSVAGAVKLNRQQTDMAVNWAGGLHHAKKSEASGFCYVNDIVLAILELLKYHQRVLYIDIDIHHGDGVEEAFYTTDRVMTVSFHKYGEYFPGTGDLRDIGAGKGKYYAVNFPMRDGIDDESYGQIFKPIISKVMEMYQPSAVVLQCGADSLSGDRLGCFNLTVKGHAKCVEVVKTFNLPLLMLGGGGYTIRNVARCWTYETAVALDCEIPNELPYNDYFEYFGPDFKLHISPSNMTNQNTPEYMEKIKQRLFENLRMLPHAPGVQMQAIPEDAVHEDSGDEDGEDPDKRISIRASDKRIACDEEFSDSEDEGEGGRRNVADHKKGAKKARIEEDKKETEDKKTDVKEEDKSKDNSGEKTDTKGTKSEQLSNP

[7] = molecular target: Histone deacetylase 3 (Homo sapiens, UniProt O15379); test: Inhibition of HDAC3 (unknown origin)
Histone deacetylase 3, sequence (O15379 whole entry): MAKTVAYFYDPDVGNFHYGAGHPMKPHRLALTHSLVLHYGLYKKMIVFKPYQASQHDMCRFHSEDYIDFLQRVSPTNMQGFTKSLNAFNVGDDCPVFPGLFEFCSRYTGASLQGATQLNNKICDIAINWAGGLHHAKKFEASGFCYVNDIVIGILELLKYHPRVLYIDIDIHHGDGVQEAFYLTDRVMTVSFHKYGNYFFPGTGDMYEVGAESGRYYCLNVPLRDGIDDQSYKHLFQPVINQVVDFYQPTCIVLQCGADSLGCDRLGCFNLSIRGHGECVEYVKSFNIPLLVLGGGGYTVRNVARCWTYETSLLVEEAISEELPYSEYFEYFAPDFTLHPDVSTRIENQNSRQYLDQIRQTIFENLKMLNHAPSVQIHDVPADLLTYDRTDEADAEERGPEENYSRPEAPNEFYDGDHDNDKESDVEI

[8] = molecular target: T5, Protein deacetylase HDAC6 (Homo sapiens, UniProt Q9UBN7); test: Inhibition of HDAC6 (unknown origin)
T5 sequence (Q9UBN7 whole entry): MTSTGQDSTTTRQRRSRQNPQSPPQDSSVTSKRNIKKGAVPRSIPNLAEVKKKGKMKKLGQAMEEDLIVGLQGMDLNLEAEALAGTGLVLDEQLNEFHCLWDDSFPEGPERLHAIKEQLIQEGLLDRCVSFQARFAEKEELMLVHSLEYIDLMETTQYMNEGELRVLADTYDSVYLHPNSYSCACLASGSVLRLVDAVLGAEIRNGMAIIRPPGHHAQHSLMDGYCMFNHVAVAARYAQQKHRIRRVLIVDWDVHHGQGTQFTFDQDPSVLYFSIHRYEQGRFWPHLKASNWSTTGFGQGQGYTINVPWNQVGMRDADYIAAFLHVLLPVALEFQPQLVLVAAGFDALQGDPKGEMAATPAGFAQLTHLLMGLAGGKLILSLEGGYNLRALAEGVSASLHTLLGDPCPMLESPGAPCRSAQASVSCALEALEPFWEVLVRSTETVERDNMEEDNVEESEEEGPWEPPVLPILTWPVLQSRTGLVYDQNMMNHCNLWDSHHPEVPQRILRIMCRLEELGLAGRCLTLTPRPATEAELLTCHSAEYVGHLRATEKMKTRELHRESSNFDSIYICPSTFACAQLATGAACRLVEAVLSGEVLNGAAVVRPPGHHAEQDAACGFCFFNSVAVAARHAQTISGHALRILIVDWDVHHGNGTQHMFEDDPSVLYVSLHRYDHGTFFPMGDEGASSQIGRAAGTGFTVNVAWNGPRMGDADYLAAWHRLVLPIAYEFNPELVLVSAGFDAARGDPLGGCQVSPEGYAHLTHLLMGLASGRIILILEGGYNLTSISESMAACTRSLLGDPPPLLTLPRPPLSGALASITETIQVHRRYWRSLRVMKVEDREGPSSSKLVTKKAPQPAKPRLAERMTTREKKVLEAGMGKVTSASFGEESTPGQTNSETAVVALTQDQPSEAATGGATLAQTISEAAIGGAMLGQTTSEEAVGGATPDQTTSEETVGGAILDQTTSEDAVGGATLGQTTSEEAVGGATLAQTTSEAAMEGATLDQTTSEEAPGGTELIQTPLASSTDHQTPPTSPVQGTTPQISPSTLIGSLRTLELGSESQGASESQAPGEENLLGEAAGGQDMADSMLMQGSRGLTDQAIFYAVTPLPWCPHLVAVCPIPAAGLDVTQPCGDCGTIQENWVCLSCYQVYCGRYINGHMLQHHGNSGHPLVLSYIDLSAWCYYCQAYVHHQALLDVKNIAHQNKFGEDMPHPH

[9] = molecular target: T6, Histone deacetylase 8 (Homo sapiens, UniProt Q9BY41); test: Inhibition of HDAC8 (unknown origin)
T6 sequence (Q9BY41 whole entry): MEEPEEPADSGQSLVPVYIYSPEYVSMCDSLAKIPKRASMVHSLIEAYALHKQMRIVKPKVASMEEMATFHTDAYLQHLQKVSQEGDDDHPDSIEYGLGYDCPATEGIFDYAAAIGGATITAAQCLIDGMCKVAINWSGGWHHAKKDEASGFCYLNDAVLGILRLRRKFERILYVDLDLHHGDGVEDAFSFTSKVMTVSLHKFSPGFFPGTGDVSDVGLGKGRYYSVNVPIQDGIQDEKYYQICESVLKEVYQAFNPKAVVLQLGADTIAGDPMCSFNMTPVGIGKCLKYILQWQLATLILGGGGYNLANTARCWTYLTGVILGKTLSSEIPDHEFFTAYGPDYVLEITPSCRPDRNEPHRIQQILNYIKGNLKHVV

[10] = molecular target: T7, Polyamine deacetylase HDAC10 (Homo sapiens, UniProt Q969S8); test: Inhibition of HDAC10 (unknown origin)
T7 sequence (Q969S8 whole entry): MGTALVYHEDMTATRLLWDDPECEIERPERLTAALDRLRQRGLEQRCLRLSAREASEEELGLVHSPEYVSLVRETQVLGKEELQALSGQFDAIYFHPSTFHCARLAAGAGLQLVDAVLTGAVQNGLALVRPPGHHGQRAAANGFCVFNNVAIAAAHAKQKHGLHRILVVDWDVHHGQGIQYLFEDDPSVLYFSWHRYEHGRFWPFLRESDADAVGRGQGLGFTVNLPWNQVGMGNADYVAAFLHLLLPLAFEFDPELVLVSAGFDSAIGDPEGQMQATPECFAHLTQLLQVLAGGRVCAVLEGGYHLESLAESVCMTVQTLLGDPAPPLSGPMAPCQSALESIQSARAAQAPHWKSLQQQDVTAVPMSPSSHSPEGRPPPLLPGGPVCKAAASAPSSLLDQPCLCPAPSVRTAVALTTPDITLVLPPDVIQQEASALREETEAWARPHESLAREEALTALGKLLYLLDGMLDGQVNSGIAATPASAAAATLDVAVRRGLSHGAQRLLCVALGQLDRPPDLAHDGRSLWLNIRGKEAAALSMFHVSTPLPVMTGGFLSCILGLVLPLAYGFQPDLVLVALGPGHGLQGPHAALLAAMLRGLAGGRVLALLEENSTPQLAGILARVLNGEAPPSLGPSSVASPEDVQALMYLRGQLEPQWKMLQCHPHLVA

[11] = molecular target: T8, Histone deacetylase 11 (Homo sapiens, UniProt Q96DB2); test: Inhibition of HDAC11 (unknown origin)
T8 sequence (Q96DB2 whole entry): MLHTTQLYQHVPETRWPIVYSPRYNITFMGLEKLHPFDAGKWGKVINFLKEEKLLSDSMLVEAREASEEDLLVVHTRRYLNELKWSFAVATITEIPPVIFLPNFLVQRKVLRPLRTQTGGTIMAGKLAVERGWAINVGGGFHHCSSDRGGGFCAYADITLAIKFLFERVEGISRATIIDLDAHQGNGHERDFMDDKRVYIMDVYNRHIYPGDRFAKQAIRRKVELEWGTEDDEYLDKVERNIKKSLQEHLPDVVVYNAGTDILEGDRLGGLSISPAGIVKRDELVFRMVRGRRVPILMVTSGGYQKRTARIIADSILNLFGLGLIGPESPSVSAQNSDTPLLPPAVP

[12] = molecular target: T1, Histone deacetylase 4; test: Inhibition of HDAC4 in human HeLa nuclear extract using Boc-Lys(Ac)-AMC as substrate preincubated for 5 mins followed by substrate addition measured after 30 mins by fluorometric assay; assay type: cell-free
[13] = molecular target: T2, Histone deacetylase 5; test: Inhibition of HDAC5 in human HeLa nuclear extract using Boc-Lys(Ac)-AMC as substrate preincubated for 5 mins followed by substrate addition measured after 30 mins by fluorometric assay; assay type: cell-free
[14] = molecular target: T3, Histone deacetylase 7; test: Inhibition of HDAC7 in human HeLa nuclear extract using Boc-Lys(Ac)-AMC as substrate preincubated for 5 mins followed by substrate addition measured after 30 mins by fluorometric assay; assay type: cell-free
[15] = molecular target: T4, Histone deacetylase 9; test: Inhibition of HDAC9 in human HeLa nuclear extract using Boc-Lys(Ac)-AMC as substrate preincubated for 5 mins followed by substrate addition measured after 30 mins by fluorometric assay; assay type: cell-free
[16] = molecular target: T5, Protein deacetylase HDAC6; test: Inhibition of HDAC6 in human HeLa nuclear extract using Boc-Lys(Ac)-AMC as substrate preincubated for 5 mins followed by substrate addition measured after 30 mins by fluorometric assay; assay type: cell-free

T2 sequence (Q9UQL6 whole entry): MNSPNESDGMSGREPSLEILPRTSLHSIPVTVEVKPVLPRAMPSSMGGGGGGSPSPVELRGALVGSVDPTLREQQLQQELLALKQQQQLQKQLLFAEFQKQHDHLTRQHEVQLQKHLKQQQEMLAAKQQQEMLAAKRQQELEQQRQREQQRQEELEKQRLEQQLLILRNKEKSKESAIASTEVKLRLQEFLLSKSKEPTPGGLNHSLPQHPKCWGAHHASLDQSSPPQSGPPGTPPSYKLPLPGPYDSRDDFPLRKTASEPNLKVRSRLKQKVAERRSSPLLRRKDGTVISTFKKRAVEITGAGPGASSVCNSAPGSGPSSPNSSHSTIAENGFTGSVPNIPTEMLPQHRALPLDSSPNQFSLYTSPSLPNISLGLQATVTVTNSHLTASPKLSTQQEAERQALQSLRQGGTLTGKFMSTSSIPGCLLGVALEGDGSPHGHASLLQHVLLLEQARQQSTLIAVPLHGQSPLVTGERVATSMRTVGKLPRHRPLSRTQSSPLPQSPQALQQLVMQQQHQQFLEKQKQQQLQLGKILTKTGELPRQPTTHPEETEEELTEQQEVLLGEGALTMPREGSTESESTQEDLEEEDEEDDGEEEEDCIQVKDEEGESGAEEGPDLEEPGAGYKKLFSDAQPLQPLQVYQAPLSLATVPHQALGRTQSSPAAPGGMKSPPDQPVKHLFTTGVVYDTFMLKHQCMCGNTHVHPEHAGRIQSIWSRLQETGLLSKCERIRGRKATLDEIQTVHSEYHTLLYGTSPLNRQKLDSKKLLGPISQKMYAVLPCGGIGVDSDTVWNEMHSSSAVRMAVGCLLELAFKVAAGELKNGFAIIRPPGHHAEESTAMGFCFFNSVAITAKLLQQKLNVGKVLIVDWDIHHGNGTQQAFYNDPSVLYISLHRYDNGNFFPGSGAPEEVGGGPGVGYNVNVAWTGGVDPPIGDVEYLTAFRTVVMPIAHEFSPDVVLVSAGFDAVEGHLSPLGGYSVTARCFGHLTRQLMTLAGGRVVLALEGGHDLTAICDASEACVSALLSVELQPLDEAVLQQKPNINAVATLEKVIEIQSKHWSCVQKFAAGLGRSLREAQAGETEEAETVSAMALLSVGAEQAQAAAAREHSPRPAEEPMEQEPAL
T1 sequence (P56524 whole entry): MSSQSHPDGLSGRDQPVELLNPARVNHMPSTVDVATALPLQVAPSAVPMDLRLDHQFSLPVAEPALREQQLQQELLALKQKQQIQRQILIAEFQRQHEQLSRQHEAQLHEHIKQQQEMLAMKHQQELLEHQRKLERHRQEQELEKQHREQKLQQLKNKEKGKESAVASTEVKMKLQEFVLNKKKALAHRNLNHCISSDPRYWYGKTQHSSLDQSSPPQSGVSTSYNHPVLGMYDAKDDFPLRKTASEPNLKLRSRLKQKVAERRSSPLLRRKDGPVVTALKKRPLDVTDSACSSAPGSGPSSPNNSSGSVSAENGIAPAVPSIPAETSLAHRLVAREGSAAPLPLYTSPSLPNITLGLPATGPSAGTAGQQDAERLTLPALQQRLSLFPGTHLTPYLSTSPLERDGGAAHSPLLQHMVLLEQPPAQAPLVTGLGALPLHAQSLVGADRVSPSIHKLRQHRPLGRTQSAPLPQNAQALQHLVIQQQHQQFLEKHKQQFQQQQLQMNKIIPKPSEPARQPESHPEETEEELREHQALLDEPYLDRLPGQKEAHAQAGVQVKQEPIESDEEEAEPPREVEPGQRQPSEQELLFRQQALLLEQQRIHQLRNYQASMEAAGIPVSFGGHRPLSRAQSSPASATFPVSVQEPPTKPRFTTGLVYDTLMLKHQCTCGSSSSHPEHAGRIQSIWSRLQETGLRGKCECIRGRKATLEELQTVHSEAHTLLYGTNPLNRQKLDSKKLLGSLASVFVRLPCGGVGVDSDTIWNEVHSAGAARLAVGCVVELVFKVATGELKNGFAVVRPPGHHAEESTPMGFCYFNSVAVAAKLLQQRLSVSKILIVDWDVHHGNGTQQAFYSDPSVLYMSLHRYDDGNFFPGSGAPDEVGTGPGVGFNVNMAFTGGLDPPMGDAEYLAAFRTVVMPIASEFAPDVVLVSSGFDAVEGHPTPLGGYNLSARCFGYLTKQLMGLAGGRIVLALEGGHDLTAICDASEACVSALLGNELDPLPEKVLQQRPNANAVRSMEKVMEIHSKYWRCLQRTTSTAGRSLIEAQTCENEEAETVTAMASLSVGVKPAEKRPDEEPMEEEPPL

Row | Structure (SMILES) | Ki [1] | Ki [2] | Ki [4] | Ki [5] | Ki [6] | Ki [7] | Ki [8] | Ki [9] | Ki [10] | Ki [11] | other results
1 | CN1CCC(CNC(=O)c2cccc(C(=O)NO)c2)(c2nc(-c3ccccc3)cs2)CC1 | 23.8 µM | 24.3 µM | 5.98 µM | 11.9 µM | > 19 µM | > 43 µM | 0.189 µM | 1.33 µM | > 10 µM | > 19 µM | Ki [3]: 3.94 µM
2 | CN(Cc1cnc2nc(N)nc(N)c2n1)c1ccc(C(=O)NC(CCP(=O)(O)O)P(=O)(O)O)cc1 (stereo unspecified) |  |  |  |  |  |  |  |  |  |  | IC50 [1]: 4.16 µM; IC50 [2]: 1.27 µM; IC50 [3]: 16.2 µM; IC50 [4]: 7.84 µM; IC50 [8]: > 40 µM; IC50 [12]: > 40 µM; IC50 [13]: > 40 µM; IC50 [14]: > 40 µM; IC50 [15]: > 40 µM; IC50 [16]: > 40 µM
3 | CN1CCC(CNC(=O)c2cccc(-c3noc(C(F)(F)F)n3)c2)(c2nc(-c3ccccc3)cs2)CC1 | 0.075 µM | 0.182 µM | 0.008 µM | > 23 µM | > 19 µM | > 43 µM | 2.81 µM | 7.66 µM | > 10 µM | > 19 µM | 

From ChEMBL document CHEMBL4364347, “Recent advances in class IIa histone deacetylases research” (Bioorg Med Chem, 2019)
